US20230174660A1, “USE OF A MULTIMERIC ANTI-DR5 BINDING MOLECULE IN COMBINATION WITH A CANCER THERAPY FOR TREATING CANCER” (IGM Biosciences, Inc., priority 2020, published 2023)
Read-outs that look alike come from different tables or passages of the source.

What was measured:
[1] = system: primary human hepatocytes; test: Cell Titer Glo viability, Mab A + chemotherapeutic/targeted agent (Example 9); type: cell-based; conditions: 72 hours
Toledo = test: as above; type: cell-based; conditions: combination with Mab A; Toledo (NHL); 72 hours
OCI-LY7 = test: as above; conditions: combination with Mab A; OCI-LY7 (NHL); 72 hours
WSU-DLCL2 = test: as above; type: cell-based; conditions: 72 hours; for Average Bliss score: combination with Mab A, WSU-DLCL2 (NHL)
Karpas-422 = test: as above; type: cell-based; conditions: combination with Mab A; Karpas-422 (NHL); 72 hours
U-937 [2] = test: as above; conditions: 72 hours; for Average Bliss score: combination with Mab A, U-937 (NHL)
U-937 [3] = system: U-937
DOHH-2 = test: Cell Titer Glo viability, Mab A + chemotherapeutic/targeted agent (Example 9); conditions: combination with Mab A; DOHH-2 (NHL); 72 hours
SW1353 = test: Cell Titer Glo viability, Mab A + SMAC mimetics (Example 13); type: cell-based; conditions: SMAC mimetic in combination with Mab A
Experimental: (§1) Synergy was determined as described in earlier examples. The average Bliss synergy scores for combinations of Mab A and SMAC mimetic on the various tumor cell lines are shown in Table 15.

OVCAR-4 = test: as above; type: cell-based; conditions: SMAC mimetic in combination with Mab A
Experimental: as §1

SK-MEL-5 = test: as above; type: cell-based; conditions: SMAC mimetic in combination with Mab A
Experimental: as §1

EBC-1 = test: as above; type: cell-based; conditions: SMAC mimetic in combination with Mab A
Experimental: as §1

HCT 116 = test: as above; type: cell-based; conditions: SMAC mimetic in combination with Mab A
Experimental: as §1

HT 1080 = test: as above; type: cell-based; conditions: SMAC mimetic in combination with Mab A
Experimental: as §1

MDA-MB-231 tumor cells = test: Cell Titer Glo viability, Mab A + SMAC mimetic (Example 7); conditions: MDA-MB-231 cells; 72 hours
[4] = system: DR5 agonist-resistant MDA-MB-231 cells; test: Cell Titer Glo viability, Mab A + SMAC mimetic on DR5 agonist-resistant tumor cells (Example 8); type: cell-based
PANC1 = test: Cell Titer Glo viability, Mab A + chemotherapeutic agent, Bliss synergy (Example 1); type: cell-based; conditions: combination with anti-DR5 IgM Mab A; PANC1, Pancreas Ductal Adenocarcinoma, exocrine; 72 hours
NUGC4 = test: as above; type: cell-based; conditions: combination with anti-DR5 IgM Mab A; NUGC4, Gastric Adenocarcinoma; 72 hours
SNU5 = test: as above; type: cell-based; conditions: combination with anti-DR5 IgM Mab A; SNU5, Gastric Adenocarcinoma; 72 hours
HCT15 = test: as above; type: cell-based; conditions: combination with anti-DR5 IgM Mab A; HCT15, Colorectal adenocarcinoma; 72 hours
HT1080 = test: as above; type: cell-based; conditions: combination with anti-DR5 IgM Mab A; HT1080, Connective tissue Fibrosarcoma; 72 hours
NCIH508 = test: as above; type: cell-based; conditions: combination with anti-DR5 IgM Mab A; NCIH508, Colorectal Caecum Adenocarcinoma; 72 hours
NCIH460 = test: as above; type: cell-based; conditions: combination with anti-DR5 IgM Mab A; NCIH460, Lung, Non-small cell; 72 hours
MOLM13 = test: as above; type: cell-based; conditions: combination with anti-DR5 IgM Mab A; MOLM13, Blood (Leukemia) Acute myelogenous leukemia; 72 hours
ASPC1 = test: as above; type: cell-based; conditions: combination with anti-DR5 IgM Mab A; ASPC1, Pancreas Ductal adenocarcinoma; 72 hours
NCIH2228 = test: as above; type: cell-based; conditions: combination with anti-DR5 IgM Mab A; NCIH2228, Lung, Non-small cell; 72 hours
MV411 = test: as above; type: cell-based; conditions: combination with anti-DR5 IgM Mab A; MV411, Blood (Leukemia) Acute myelogenous leukemia; 72 hours
LOUNH91 = test: as above; type: cell-based; conditions: combination with anti-DR5 IgM Mab A; LOUNH91, Lung Squamous cell carcinoma; 72 hours
BXPC3 = test: as above; type: cell-based; conditions: combination with anti-DR5 IgM Mab A; BXPC3, Pancreas adenocarcinoma; 72 hours
[5] = system: primary human hepatocytes; test: as above; type: cell-based; conditions: combination with anti-DR5 IgM Mab A, Liver, 72 hours
UMUC3 = test: as above; type: cell-based; conditions: combination with anti-DR5 IgM Mab A; UMUC3, Bladder Transitional Cell Carcinoma; 72 hours
NCIN87 = test: as above; type: cell-based; conditions: combination with anti-DR5 IgM Mab A; NCIN87, Gastric Adenocarcinoma, tubular; 72 hours
HT55 = test: as above; type: cell-based; conditions: combination with anti-DR5 IgM Mab A; HT55, Colorectal Carcinoma; 72 hours
Colo205 tumor cells = test: Colo205 subcutaneous tumor model in NCr nude mice (Examples 2-5, 14); type: in vivo; conditions: study termination on day 100; paclitaxel 25 mg/kg i.v. 5 doses, alone or with Mab A 5 mg/kg i.v. 7 doses

Row | SMILES | Average Bliss score (SW1353) | Average Bliss score (OVCAR-4) | Average Bliss score (SK-MEL-5) | Average Bliss score (EBC-1) | Average Bliss score (HCT 116) | Average Bliss score (HT 1080) | Average Bliss score (PANC1) | Average Bliss score (NUGC4) | Average Bliss score (SNU5) | Average Bliss score (HCT15) | Average Bliss score (HT1080) | Average Bliss score (NCIH508) | Average Bliss score (NCIH460) | Average Bliss score (ASPC1) | Average Bliss score (NCIH2228) | Average Bliss score (LOUNH91) | Average Bliss score (BXPC3) | Average Bliss score (NCIN87) | Average Bliss score (HT55) | further results
1 | COc1ccccc1-c1nccc(COc2ccccc2C[C@H](Oc2ncnc3sc(-c4ccc(F)cc4)c(-c4ccc(OCCN5CCN(C)CC5)c(Cl)c4C)c23)C(=O)O)n1 (atropisomer, axis not shown) [MIK665, MIK665/S-64315] |  |  |  |  |  |  |  |  |  |  |  |  |  |  |  |  |  |  |  | cytotoxicity in primary human hepatocytes [1]: causes cytotoxicity; Average Bliss score (Toledo): 6.7; Average Bliss score (OCI-LY7): 3.5; single agent cytotoxicity (cell viability curves) (WSU-DLCL2; WSU-DLCL2 cells): complete cytotoxicity; Average Bliss score (WSU-DLCL2): 16; Average Bliss score (Karpas-422): 3.7; Average Bliss score (U-937 [2]): 4.8; single agent cytotoxicity (cell viability curves) (U-937 [3]): complete cytotoxicity; Average Bliss score (DOHH-2): 3.1
2 | CN[C@@H](C)C(=O)N[C@H]1CN(S(=O)(=O)c2cccc(S(=O)(=O)N3CC[C@H]4CC[C@@H](C(=O)NC(c5ccccc5)c5ccccc5)N4C(=O)[C@@H](NC(=O)[C@H](C)NC)C3)c2)CC[C@H]2CC[C@@H](C(=O)NC(c3ccccc3)c3ccccc3)N2C1=O [APG-1387] | −3 | 10 | 7 | 47 | 34 | 38 |  |  |  |  |  |  |  |  |  |  |  |  |  | 
3 | C[C@@H]1CN(CC(=O)N2CC(C)(C)c3nc(CO)c(Cc4ccc(F)cc4)cc32)[C@@H](CN2CCOC[C@H]2C)CN1 [ASTX660] | −2 | 9 | 11 | 17 | 29 | 20 |  |  |  |  |  |  |  |  |  |  |  |  |  | 
4 | CN[C@@H](C)C(=O)N[C@H]1CN(C(=O)CC(C)C)CC[C@H]2CC[C@@H](C(=O)NC(c3ccccc3)c3ccccc3)N2C1=O [Debio 1143] | −1 | 3 | 4 | 23 | 19 | 12 |  |  |  |  |  |  |  |  |  |  |  |  |  | 
5 | CN[C@@H](C)C(=O)N[C@H](C(=O)N1CCC[C@H]1C(=O)Nc1snnc1-c1ccccc1)C1CCCCC1 [GDC-0152, GDC-0152/RG-7419] |  |  |  |  |  |  |  |  |  |  |  |  |  |  |  |  |  |  |  | single agent cytotoxicity (cell viability curves) (MDA-MB-231 tumor cells): little to no cytotoxicity; single agent cytotoxicity (cell viability curves) [4]: little to no cytotoxicity
6 | COc1cccc2c1C(=O)c1c(O)c3c(c(O)c1C2=O)C[C@@](O)(C(=O)CO)C[C@@H]3O[C@H]1C[C@H](N)[C@H](O)[C@H](C)O1 [doxorubicin, Doxorubicin] |  |  |  |  |  |  | 7.3 | 8.9 | 12 | 10 | 1.5 | 1.3 | 4 | −0.63 | 16 | 12 | 1.5 | 12 | 1.6 | Average Bliss score (MOLM13): 5.2; Average Bliss score (MV411): 7.1; Average Bliss score [5]: 0.94; Average Bliss score (UMUC3): 8.8
7 | COc1cc([C@@H]2c3cc4c(cc3[C@@H](O[C@@H]3O[C@@H]5CO[C@@H](C)O[C@H]5[C@H](O)[C@H]3O)[C@H]3COC(=O)[C@H]23)OCO4)cc(OC)c1O [etoposide, Etoposide] |  |  |  |  |  |  | 10 | −2.3 | 3.6 | 15 | 3.6 | −0.99 | 3.6 | 5.2 | 14 | 16 | 2.2 | 17 | 5.1 | 
8 | CC[C@H](Nc1ncnc2nc[nH]c12)c1nc2cccc(F)c2c(=O)n1-c1ccccc1 [idelalisib, Idelalisib] |  |  |  |  |  |  |  |  |  |  |  |  |  |  |  |  |  |  |  | Average Bliss score (Toledo): −1.6; Average Bliss score (OCI-LY7): −1.8; Average Bliss score (WSU-DLCL2): −7.4; Average Bliss score (Karpas-422): −3.2; Average Bliss score (U-937 [2]): 2.7; Average Bliss score (DOHH-2): −0.89
9 | CC(=O)O[C@H]1C(=O)[C@@]2(C)[C@H]([C@H](OC(=O)c3ccccc3)[C@]3(O)C[C@H](OC(=O)[C@H](O)[C@@H](NC(=O)c4ccccc4)c4ccccc4)C(C)=C1C3(C)C)[C@]1(OC(C)=O)CO[C@@H]1C[C@@H]2O [paclitaxel, Paclitaxel] |  |  |  |  |  |  | 15 | 7 | 2.8 | 7.6 | 2.7 | 8.4 | 4.7 | 14 | 15 | 9.7 | 3.8 | 13 | 6.2 | animals with no visible tumors (tumor-free) (Colo205 tumor cells): 2 out of 10; Average Bliss score [5]: 5.3; Average Bliss score (UMUC3): 6.3
10 | CC[C@]1(O)C[C@H]2CN(CCc3c([nH]c4ccccc34)[C@@](C(=O)OC)(c3cc4c(cc3OC)N(C=O)[C@H]3[C@@](O)(C(=O)OC)[C@H](OC(C)=O)[C@]5(CC)C=CCN6CC[C@]43[C@@H]65)C2)C1 [vincristine, Vincristine] |  |  |  |  |  |  |  |  |  |  |  |  |  |  |  |  |  |  |  | single agent cytotoxicity (cell viability curves) (U-937 [2]; U-937 cells): strong cytotoxicity
